PubChem BioAssay (NCI)
Several values for one entry are separate records, joined by “and”; a condition that tells them apart may be missing. Equal values may be shown once.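 Cells were grown in 96-well plates and exposed to each compound for 48 hours at five concentrations; endpoints were interpolated linearly between bracketing concentrations, or set to the highest concentration if not reached. GI50 marks 50% less growth. TGI: concentration producing complete growth inhibition.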

Columns and labels:
Assay in all cases: NCI tumour cell line growth inhibition, 48 h
A498 renal = test system: A498 renal
EKVX NSCLC = test system: EKVX NSCLC
HCC-2998 colon = test system: HCC-2998 colon
MDA-MB-231 breast = test system: MDA-MB-231 breast
SF-268 CNS = test system: SF-268 CNS
SK-MEL-2 melanoma = test system: SK-MEL-2 melanoma
TK-10 renal = test system: TK-10 renal
UACC-257 melanoma = test system: UACC-257 melanoma
UACC-62 melanoma = test system: UACC-62 melanoma
K-562 leukemia = test system: K-562 leukemia

SMILES	GI50 (A498 renal)	TGI (A498 renal)	GI50 (EKVX NSCLC)	TGI (EKVX NSCLC)	GI50 (HCC-2998 colon)	TGI (HCC-2998 colon)	GI50 (MDA-MB-231 breast)	TGI (MDA-MB-231 breast)	GI50 (SF-268 CNS) [µM]	TGI (SF-268 CNS)	GI50 (SK-MEL-2 melanoma) [µM]	TGI (SK-MEL-2 melanoma)	GI50 (TK-10 renal)	TGI (TK-10 renal)	GI50 (UACC-257 melanoma)	TGI (UACC-257 melanoma)	GI50 (UACC-62 melanoma)	TGI (UACC-62 melanoma)	TGI (K-562 leukemia)	GI50 (K-562 leukemia)
CC(=O)/C=C/c1ccc(OCc2ccc(Cl)cc2)cc1	254 µM	> 1000 µM	298 µM	> 1000 µM	473 µM	> 1000 µM	629 µM	> 1000 µM	670	> 1000 µM	473	> 1000 µM	827 µM	> 1000 µM	274 µM	> 1000 µM	218 µM	> 1000 µM	–	–
COC(=O)c1cc(OC)c(OC)c(OC)c1-c1cc2c(cc1C=O)OCO2	–	> 10 µM	–	> 10 µM	–	> 10 µM	–	> 10 µM	–	> 10 µM	–	> 10 µM	–	> 10 µM	–	> 10 µM	–	> 10 µM	> 10 µM	–
CC(=O)OC1=CC2(OC(C)=O)CC(C)(C)C1C1C(=O)C=CC(=O)C12 (stereo not given)	–	> 100 µM	–	> 100 µM	–	> 100 µM	–	> 100 µM	–	> 100 µM	–	> 100 µM	–	> 100 µM	–	> 100 µM	–	56.7 µM	> 100 µM	–
COc1ccc(CCN2CCC(CN(C)Cc3cnn(-c4ccccc4)c3)CC2)cc1	1.58 µM	7.78 µM	–	–	5.13 µM	18.1 µM	3.58 µM	20.1 µM	14.2	34.7 µM	17.3	32.8 µM	16.3 µM	32.6 µM	2.59 µM	7.12 µM	2.63 µM	7.36 µM	10.9 µM	3.14 µM
CC(=O)Nc1n[n+]([O-])c2cc(C)ccc2[n+]1[O-]	–	19.4 µM	–	16.8 µM	–	71 µM	–	23.4 µM	–	19.7 µM	–	26.5 µM	–	58.1 µM	–	18.7 µM	–	6.04 µM	> 49.3 µM	–
Cc1cc(O)c(C2=NN(c3ccc(S(N)(=O)=O)cc3)C(/C=C/c3ccccc3)C2)cc1Cl (stereo not given)	14.9 µM	42.4 µM	14.2 µM	35.3 µM	9.89 µM	30.3 µM	4.56 µM	16.3 µM	5.63	19.5 µM	16.8	58.2 µM	14.8 µM	29.9 µM	14.5 µM	45.7 µM	2.89 µM	11.4 µM	87.5 µM	11.6 µM
CC1(C)O[C@@H]2C[C@H]3[C@@H]4C[C@H](F)C5=CC(=O)C=C[C@]5(C)[C@@]4(F)[C@@H](O)C[C@]3(C)[C@]2(C(=O)CO)O1	–	> 100 µM	–	> 100 µM	–	> 100 µM	–	> 100 µM	–	> 100 µM	–	> 100 µM	–	> 100 µM	–	> 100 µM	–	> 100 µM	> 100 µM	–
COc1ccc(C(=O)c2sc3nc(-c4cccs4)ccc3c2N)cc1OC	2 µM	> 100 µM	–	–	26.2 µM	> 100 µM	2.96 µM	29.6 µM	8.33	> 100 µM	3.29	19.2 µM	–	–	8.51 µM	> 100 µM	6.47 µM	> 100 µM	> 100 µM	2.1 µM
COC(=O)C(C(=O)OC)C(Br)C(Br)C(Br)c1ccccc1 (stereo not given)	15.5 µM	33.1 µM	–	–	21 µM	37.8 µM	13.2 µM	26.8 µM	14.6	29.6 µM	5.92	19.2 µM	–	–	2.34 µM	11 µM	9.46 µM	21.5 µM	–	–
Cc1[nH]c2cc(F)ccc2c1-c1nc2c3cccnc3c3ncccc3c2[nH]1	0.263 µM	1.06 µM	0.32 µM	2.69 µM	0.117 µM	1.3 µM	0.409 µM	2.4 µM	0.21	2.2 µM	0.504	1.75 µM	0.396 µM	2.34 µM	0.228 µM	0.833 µM	–	–	4.77 µM	0.324 µM
CC(=O)O[C@H]1CC[C@@]2(C)C(=C/C(=N/OCCN3CCCC3)[C@H]3[C@@H]4CC[C@H](OC(C)=O)[C@@]4(C)CC[C@@H]32)C1	76.7 µM	> 100 µM	> 100 µM	> 100 µM	45 µM	> 100 µM	38.7 µM	> 100 µM	> 100	> 100 µM	26.3	65 µM	90.4 µM	> 100 µM	–	–	45.3 µM	> 100 µM	> 100 µM	27.3 µM
COc1ccc2c(c1)-c1nn(CCCN(C)C)c3ccc([N+](=O)[O-])c(c13)N2	0.458 µM and 1.54 µM	3.51 µM and 8.8 µM	0.393 µM and 1 µM	4.22 µM and 9.84 µM	0.148 µM and 0.728 µM	1.73 µM and 12.2 µM	0.198 µM and 1.17 µM	2.79 µM and 12 µM	–	6.12 µM and 6.94 µM	–	4.28 µM and 4.55 µM	0.345 µM and 0.809 µM	4.69 µM and 7.86 µM	0.455 µM and 1.1 µM	3.26 µM and 10.9 µM	0.314 µM and 0.934 µM	2.44 µM and 5.2 µM	5.57 µM and 12.1 µM	0.145 µM and 0.338 µM
N#CC(C#N)=C/C=C(\Sc1ccc(F)cc1Cl)c1ccc(Cl)cc1	8.97 µM	24 µM	8.42 µM	26.9 µM	2.3 µM	4.54 µM	0.478 µM	2.27 µM	0.457	1.9 µM	1.45	8.17 µM	0.5 µM	2.08 µM	1.8 µM	4.76 µM	2.18 µM	6.16 µM	> 100 µM	0.432 µM
CCN1C(=NCCO)NS(=O)(=O)c2ccccc21	–	> 100 µM	–	> 100 µM	–	> 100 µM	–	> 100 µM	–	> 100 µM	–	> 100 µM	–	> 100 µM	–	> 100 µM	–	> 100 µM	> 100 µM	–
O=Cc1ccc(-c2ccc(-c3nc4ccccc4s3)cc2)s1	> 100 µM	> 100 µM	42.1 µM	> 100 µM	> 100 µM	> 100 µM	17.6 µM	78.2 µM	71.7	> 100 µM	> 100	> 100 µM	70.2 µM	> 100 µM	> 100 µM	> 100 µM	22.2 µM	> 100 µM	> 100 µM	37.1 µM
